Test results from patent US5760241A, “Thiol derivatives with metallopeptidase inhibitory activity” (priority 1996, dated 1998).

Columns and labels:
[1] = molecular target: T1, ACE (purified by lung rabbit, EC 3.4.15.1) (Oryctolagus cuniculus, UniProt P12822); experiment: In vitro ACE-inhibitory activity (FAPGG substrate, spectrophotometric); type: biochemical; conditions: 37° C.; FAPGG 0.8 mM
T1 construct: purchased SIGMA; host or cells: rabbit lung
T1 sequence (P12822 34-1310): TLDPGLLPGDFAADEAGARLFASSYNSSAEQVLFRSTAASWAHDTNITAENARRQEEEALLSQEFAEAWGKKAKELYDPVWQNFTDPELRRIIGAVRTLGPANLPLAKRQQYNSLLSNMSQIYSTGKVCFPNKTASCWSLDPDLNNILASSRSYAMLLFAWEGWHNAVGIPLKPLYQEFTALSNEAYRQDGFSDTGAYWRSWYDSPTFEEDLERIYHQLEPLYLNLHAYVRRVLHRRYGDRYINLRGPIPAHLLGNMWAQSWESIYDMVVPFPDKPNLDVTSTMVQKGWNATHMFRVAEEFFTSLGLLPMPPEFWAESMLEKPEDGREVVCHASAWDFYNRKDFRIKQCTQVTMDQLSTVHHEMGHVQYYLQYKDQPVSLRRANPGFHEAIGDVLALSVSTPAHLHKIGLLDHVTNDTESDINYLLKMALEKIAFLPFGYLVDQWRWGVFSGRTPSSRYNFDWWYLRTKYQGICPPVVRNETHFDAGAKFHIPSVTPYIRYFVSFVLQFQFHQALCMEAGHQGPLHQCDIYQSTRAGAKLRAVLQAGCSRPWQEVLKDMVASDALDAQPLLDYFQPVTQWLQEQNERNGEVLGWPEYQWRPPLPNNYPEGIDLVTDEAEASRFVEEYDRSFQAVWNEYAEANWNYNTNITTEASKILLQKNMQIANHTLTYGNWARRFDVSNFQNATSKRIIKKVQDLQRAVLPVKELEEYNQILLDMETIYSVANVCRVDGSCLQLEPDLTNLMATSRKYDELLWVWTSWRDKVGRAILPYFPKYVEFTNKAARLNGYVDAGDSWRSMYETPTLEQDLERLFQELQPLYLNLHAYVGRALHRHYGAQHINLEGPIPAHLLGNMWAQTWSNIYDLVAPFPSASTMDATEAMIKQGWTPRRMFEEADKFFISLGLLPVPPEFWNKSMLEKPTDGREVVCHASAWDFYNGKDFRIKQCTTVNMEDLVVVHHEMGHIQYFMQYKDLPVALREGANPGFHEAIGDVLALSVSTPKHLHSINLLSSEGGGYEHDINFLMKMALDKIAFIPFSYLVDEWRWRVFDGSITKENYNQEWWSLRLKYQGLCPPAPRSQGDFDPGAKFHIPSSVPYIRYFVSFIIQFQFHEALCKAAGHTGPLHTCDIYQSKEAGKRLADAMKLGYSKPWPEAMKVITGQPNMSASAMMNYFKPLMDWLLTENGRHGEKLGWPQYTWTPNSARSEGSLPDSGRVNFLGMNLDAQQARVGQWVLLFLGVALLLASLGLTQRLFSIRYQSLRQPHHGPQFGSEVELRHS
Protocol: (§1) b) ACE-inhibitory activity
The ACE-inhibitory activity was evaluated according to the method reported in the literature by B. Holmquist et al., in Analytical Biochemistry 95, 540-548 (1979).
[…] of ACE (250 mU/ml purified by lung rabbit, EC 3.4.15.1 SIGMA) were preincubated with 50 μl of the compound of formula I or of the comparison compound in thermostated cuvettes at 37° C.
The reaction was started by adding furylacryloylphenylalanylglycylglycine 0.8 mM (FAPGG-SIGMA).
Contemporaneously, by using a Beckman DU-50 spectrophotometer provided with a program for calculating delta A/minutes and regression coefficients of the enzyme kinetics curves, the absorbance at 340 nm was recorded in continuo for 5 minutes.
The percentage of the enzyme inhibition in the preparations treated with the compounds of formula I or with the comparative compounds with respect to the untreated preparations was expressed as IC50 (nM) value.

ACE (SHR lungs) = experiment: Ex vivo ACE-inhibitory activity in lungs of treated SHR; set-up: species or system spontaneously hypertensive rats (SHR); conditions: i.v. 0.64 μmoles/kg, 5 minutes
Protocol: The ex vivo ACE/NEP-inhibitory activity of the compounds of formula I, in particular, was evaluated by considering the enzymatic activity in tissue homogenates (lung and kidney for the ACE- and NEP-inhibitory activity, respectively) from spontaneously hypertensive rats (SHR), treated with the tested compounds by intravenous or oral route.
as §1
The ex vivo ACE-inhibitory activity was evaluated by using a radiometric assay method, as reported in the literature by J. W. Ryan et al. in Biochem. J. (1977), 167, 501-504.
The inhibitory activity of the compounds of formula I was evaluated in lungs of spontaneously hypertensive rats (SHR), 5 minutes after i.v. injection (0.6, 0.64 and 21 μmoles/kg) and 30 minutes, 60 minutes and 4 hours after oral administration (30 μmoles/kg) of the tested compounds.
After the removal of the lungs from SHR, the lung tissue was homogenized and incubated for 2 hours at 37° C. in the presence of [^3 H]Hyp-Gly-Gly, as a substrate.
The reaction was stopped by adding hydrochloric acid.
The released radiolabelled hyppuric acid was extracted with ethyl acetate and counted by liquid scintillation spectrometry, according to conventional methods.
The ACE-inhibitory activity of the tested compounds was expressed as percentage of ACE-inhibition in SHR lungs.
As an example, the percentages of basal enzymatic activity obtained in the ex vivo tests after the administration of compounds 29 and 41, as representative compounds of formula I, and of the comparison compounds R-1, R-2, R-3 and R-4 are reported in the following table 2.

- IC50 [1]: 5 nM
SMILES: O=C(N[C@@H](Cc1ccc(-c2ccccc2)cc1)C(=O)O)C(CS)Cc1ccccc1 (some centres unmarked) [compound 41]
- ACE-inhibition (lungs), 5 minutes (ACE (SHR lungs)): 49%
